# System: carrageenan-induced edema in the hind paws
# Experiment: Carrageenan-induced hind paw edema in rats (oral administration)
# Assay type: in vivo, Male Wistar rats
# Details: Rattus norvegicus, 1 hour before 0.1 ml of 1% carrageenan, 3 hours
# Protocol: Male Wistar rats each weighing about 100 g, one group consisting of 5 to 7 animals, were orally given the compounds according to this invention, and edema was induced in the hind paws by subcutaneous injections of 0.1 ml of 1% carrageenan one hour after the administration of the test compounds. Thereafter, the volumes of the hind paws were measured by a volume differential meter.
structure (smiles),measurement,value
"NC(=O)Cc1ccc2c(c1)CCc1cccnc1S2 [Compound 12, (5,6-Dihydro benzo[b]pyrido[3,2-f]thiepin-8yl)-acetamide]",inhibition in vivo at 5 mg/kg,43.9%
"CCOC(=O)Cc1ccc2c(c1)CCc1ccccc1S2 [Compound 5, Ethyl(10,11-dihydrodibenzo[b,f]thiepin-2-yl)-acetate]",inhibition in vivo at 5 mg/kg,46%
"O=C(O)Cc1ccc2c(c1)CCc1cccnc1S2 [Compound 11, (5,6-Dihydro benzo[b]pyrido[3,2-f]thiepin-8-yl)-acetic acid]",inhibition in vivo at 5 mg/kg,59.7%
"CCOC(=O)Cc1ccc2c(c1)C(=O)Cc1ccccc1O2 [Compound 7, Ethyl(10,11-dihydro-11-oxodibenzo[b,f]oxepin-2-yl)-acetate]",inhibition in vivo at 5 mg/kg,47.9%
"NC(=O)Cc1ccc2c(c1)C(=O)Cc1ccccc1S2 [Compound 2, (10,11-Dihydro-11-oxo dibenzo[b,f]thiepin-2-yl)-acetamide]",inhibition in vivo at 5 mg/kg,42.1%
"CCOC(=O)Cc1ccc2c(c1)CCc1cccnc1S2 [Compound 13, Ethyl(5,6-dihydrobenzo[b]pyrido[3,2-f]thiepin-8-yl)-acetate]",inhibition in vivo at 5 mg/kg,64.6%
"COC(=O)Cc1ccc2c(c1)C(=O)Cc1cccnc1S2 [Compound 10, Methyl (5,6-dihydro-6-oxo benzo[b]pyrido[3,2-f]thiepin-8-yl)-acetate]",inhibition in vivo at 5 mg/kg,38.4%
"O=C(O)Cc1ccc2c(c1)CCc1ccccc1S2 [Compound 4, (10,11-Dihydro dibenzo[b,f]thiepin-2-yl)-acetic acid]",inhibition in vivo at 5 mg/kg,45.3%
"CCOC(=O)Cc1ccc2c(c1)C(=O)Cc1ccccc1S2 [Compound 3, Ethyl(10,11-dihydro-11-oxodibenzo[b,f]thiepin-2-yl)-acetate]",inhibition in vivo at 5 mg/kg,50.6%
"O=C(O)c1ccccc1Nc1cccc(C(F)(F)F)c1 [Flufenamic acid, reference compound]",inhibition in vivo at 5 mg/kg,29.3%
"O=C(O)Cc1ccc2c(c1)C(=O)Cc1ccccc1O2 [Compound 6, (10,11-dihydro-11-oxo dibenzo[b,f]oxepin-2-yl)-acetic acid]",inhibition in vivo at 5 mg/kg,44.1%
"CCCCC1C(=O)N(c2ccccc2)N(c2ccccc2)C1=O [Phenylbutazone, reference compound]",inhibition in vivo at 5 mg/kg,20.9%
"O=C(O)Cc1ccc2c(c1)CCc1ccccc1O2 [Compound 8, (10,11-Dihydro dibenzo[b,f]oxepin-2-yl)-acetic acid]",inhibition in vivo at 5 mg/kg,61.4%
"O=C(O)Cc1ccc2c(c1)C(=O)Cc1ccccc1S2 [Compound 1, (10,11-Dihydro-11-oxo dibenzo[b,f]thiepin-2-yl)-acetic acid]",inhibition in vivo at 5 mg/kg,58%
"CCOC(=O)Cc1ccc2c(c1)CCc1cccnc1O2 [Compound 15, Ethyl(5,6-dihydrobenzo[b]pyrido[3,2-f]oxepin-8-yl)-acetate]",inhibition in vivo at 5 mg/kg,41.6%
"CCOC(=O)Cc1ccc2c(c1)CCc1ccccc1O2 [Compound 9, Ethyl (10,11-dihydro dibenzo[b,f]oxepin-2-yl)-acetate]",inhibition in vivo at 5 mg/kg,63.4%
"O=C(O)Cc1ccc2c(c1)CCc1cccnc1O2 [Compound 14, (5,6-Dihydro benzo[b]pyrido[3,2-f]oxepin-8-yl)-acetic acid]",inhibition in vivo at 5 mg/kg,50.6%

# From patent publication US4263437A, “Acetic acid derivatives of 5,6-dihydrobenzo[b]pyrido[3,2-f]thiepine and oxepine” (Nippon Chemiphar Co., Ltd., priority 1978, dated 1981)
